In patent US6326020A (priority 1998, dated 2001):

Experiments:
[1] = test system: sciatic nerve; details: rat, in vivo
[2] = test system: nerve block; set-up: species or system human; details: in vivo
[3] = test system: sciatic nerve; set-up: species or system Sprague-Dawley rat; details: rat, in vivo
[4] = test system: thermal nociception; details: rat, in vivo
[5] = test system: sciatic nerve; set-up: species or system Sprague-Dawley rat; details: rat, in vivo; remark: listed apart in the source
[6] = test system: sciatic nerve; set-up: species or system Sprague-Dawley rat; details: rat, in vivo; remark: listed apart in the source
[7] = test system: sciatic nerve; set-up: species or system Sprague-Dawley rat; details: rat, in vivo; remark: listed apart in the source

COc1cc(CNC(=O)CCCC/C=C/C(C)C)ccc1O [capsaicin, trans-8-methyl-N-vanillyl-6-nonenamide]
Dose required for prolonged block with TTX, fold below threshold for block from the vanilloid alone [1]: more than 5 fold | Duration of prolonged block [1]: 2 days | Duration of prolonged block [2]: 3 to 4 days

C=C(C)C12CC(C)C34OC(Cc5ccccc5)(OC1C3C=C(COC(=O)Cc1ccc(O)c(OC)c1)CC1(O)C(=O)C(C)=CC14)O2 (centres unmarked) [resiniferotoxin]
Dose required for prolonged block with TTX, fold below threshold for block from the vanilloid alone [1]: more than 5 fold | Duration of prolonged block [1]: 2 days | Duration of prolonged block [2]: 3 to 4 days

CCCCN1CCCCC1C(=O)Nc1c(C)cccc1C (centres unmarked) [Bupivacaine, bupivacaine]
Duration of Effective Block, Hop [3]: 143 ± 48 min | Duration of block, thermal nociception [4]: 104 ± 18 min | "Missed block" rate [5]: 0% | Modalities impaired [5]: all four modalities were impaired in all rats | Rate of successful block [5]: 100% | Duration of Effective Block, EPT [6]: 190 ± 56 min | Duration of Effective Block, PPR [7]: 162 ± 44 min

Oc1cc2c(cc1O)CN(C(=S)NCCc1ccc(Cl)cc1)CCC2 [capsazepine]
Reversal of established block from vanilloid-site 1 toxin combination [1]: reverses established block
